Source: paper PMC10663244 (Investigational New Drugs, 2023)
Read-outs that look alike come from different tables or passages of the source.

Legend:
[1] = test system: FGFR2 fusion/rearrangement-positive cholangiocarcinoma (CCA); set-up: method as in PMID 29182496; details: 108 previously-treated patients; cited from earlier work
UC = test system: UC; set-up: method as in PMID 31340094; details: 99 patients with UC; cited from earlier work
[2] = test system: FGF/FGFR1-3 altered, advanced solid tumors; experiment: Antitumor activity per RECIST v1.1 by investigator, phase I; type: in vivo, human (Chinese patients); details: 12 patients
Procedure: Tumor response was assessed by investigator according to Response Evaluation Criteria in Solid Tumors (RECIST) v1.1 every 9 weeks after first dosing.
(§1) Tumor was assessed per RECIST v1.1 by investigator at baseline, and every 9 weeks after first dosing. […] Adverse events (AEs) were graded per CTCAE v5.0. […] Sponsor-defined clinically notable TEAEs included hyperphosphatemia, hypophosphatemia, nail toxicities, and serous retinal detachment.
(§2) All statistical analyses were conducted using SAS version 9.4 (or higher).
The Clopper-Pearson method was used to calculate the 95% confidence interval (CI) of ORR and DCR. The Kaplan–Meier method and the Brookmeyer and Crowley method were used to estimate PFS.

[3] = test system: FGF/FGFR alterations and advanced malignancies; details: Western patients, cited from earlier work
[4] = cited from earlier work
serum phosphate [5] = details: Western population; cited from earlier work
[6] = Western population, steady state, cited from earlier work
advanced malignancies = details: Japanese population, cited from earlier work
serum phosphate [7] = experiment: Pharmacodynamics: serum phosphate level as PD marker for FGFR inhibition; type: in vivo, human (Chinese patients)
Procedure: Serum phosphate level was defined as the PD marker in the study for assessing FGFR inhibition. […] Serum phosphate levels were measured using phosphomolybdate UV method (measuring range: 0.31‑20.0 mg/dL) by the central laboratory (Q2 Solutions [Beijing] Co., Ltd.).
Serum samples were analyzed for the concentration of serum phosphate using phosphomolybdate UV method by the central laboratory (Q2 Solutions (Beijing) Co., Ltd.). The concentration of phosphomolybdate formed is directly proportional to the inorganic phosphate concentration and is measured photometrically. Phosphorus quantification was determined in human plasma on Roche/Hitachi cobas c systems. Measuring range was 0.10‑6.46 mmol/L (0.31‑20.0 mg/dL). Reagents: Phosphate (Inorganic) ver.2 (250 tests) Catalouge:03183793 122.

[8] = Plasma pharmacokinetics of pemigatinib (LC–MS/MS, non-compartmental), phase I; type: in vivo, human (Chinese patients); details: for Tmax: read-out: tmax, median (min, max)
[9] = any grade, Japanese patients; cited from earlier work
[10] = Safety: treatment-emergent adverse events (CTCAE v5.0), phase I; type: in vivo
Procedure: as §1, §2

[11] = 13.5 mg oral QD, C1D14 (steady state), N=12

CCN1CCN(c2ccc(Nc3cc(N(C)C(=O)Nc4c(Cl)c(OC)cc(OC)c4Cl)ncn3)cc2)CC1 [Infigratinib]
ORR [1]: 23.1%

COc1cc(OC)cc(N(CCNC(C)C)c2ccc3ncc(-c4cnn(C)c4)nc3c2)c1 [erdafitinib]
Overall objective response rate (ORR) (UC): 40%

CCN1C(=O)N(c2c(F)c(OC)cc(OC)c2F)Cc2cnc3[nH]c(CN4CCOCC4)cc3c21 [pemigatinib]
Objective response rate (ORR) ([2]; 13.5 mg QD 2-weeks-on/1-week-off, confirmed): 16.7% | Best overall confirmed response: Partial response [2]: 2 (16.7%) n (%) | Objective response rate ([2]; 95% CI […] - 48.4%): 2 (16.7%) n (%) | ORR for patients with FGFR mutations ([3]; Fight-101, 3/13): 23.1% | ORR for patients with FGFR fusions/rearrangements ([3]; Fight-101, 5/20): 25.0% | Disease control rate ([3]; Fight-101): 40.6% | Objective response rate ([3]; Fight-101): 9.4% | Incidence of hyperphosphataemia ([4]; any grade, Western patients): 75% | Incidence of hyperphosphataemia ([4]; grade ≥ 3, Western patients): 2.3% | Serum phosphate concentration change from baseline, geomean (CV%) (serum phosphate [5]): 2.6 (40.4%) mg/dL | AUCss,0-24, geomean [6]: 2620 nM·h | Cmax ([6]; read-out: Cmax,ss, geomean): 236 nM | Objective response rate (advanced malignancies; Fight-102, 1/25): 4.0% | Disease control rate (advanced malignancies; Fight-102): 40.0% | Serum phosphate level increase, mean (serum phosphate [7]; days 8 and 15 of cycle 1, 13.5 mg QD, 11 patients, CV% 31.3%): 2.25 mg/dL | Serum phosphate concentration change from baseline, geomean (CV%) (serum phosphate [7]; days 8 and 15 of cycle 1, Chinese patients): 2.15 (32.9%) mg/dL | Serum phosphate level after 1 week off (serum phosphate [7]; post 1 week off/intermission): decreased to baseline | Serum phosphorus during subsequent treatment (serum phosphate [7]; subsequent treatment after cycle 1): remained below or near the baseline levels | CLss/F, geometric mean [8, 11]: 11.8 L/h | CLss/F, mean ± STD [8, 11]: 13.3 ± 7.2 L/h | Cmin,ss, geometric mean [8, 11]: 49.8 nmol/L | tmax, median (min, max) [8, 11]: 1.99 (0.5, 23.2) h | AUCss,0-24, geomean ([8]; Chinese patients, steady state, 13.5 mg QD): 2636.9 nM·h | Cmax ([8]; Chinese patients, steady state, 13.5 mg QD, read-out: Cmax,ss, geomean): 215 nM | AUC(0-t) ([8]; human, plasma, po, 13.5 mg, 13.5 mg oral QD, C1D1, N=12, read-out: AUC0-24, geometric mean (converted)): 2.13 µM·h | AUC(0-t) ([8]; human, plasma, po, 13.5 mg, 13.5 mg oral QD, C1D1, N=12, read-out: AUC0-24, mean ± STD): 2.24 ± 0.861 µM·h | Cmax ([8]; human, plasma, po, 13.5 mg, 13.5 mg oral QD, C1D1, N=12, read-out: Cmax, geometric mean (converted)): 154 nM | Cmax ([8]; human, plasma, po, 13.5 mg, 13.5 mg oral QD, C1D1, N=12, read-out: Cmax, mean ± STD): 190 ± 108 nM | Tmax ([8]; human, plasma, po, 13.5 mg, 13.5 mg oral QD, C1D1, N=12): ~1.52 h | AUC ([8]; human, plasma, po, 13.5 mg, 13.5 mg oral QD, C1D14 (steady state), N=12, read-out: AUCss,0-24, geometric mean (converted)): 2.64 µM·h | AUC ([8]; human, plasma, po, 13.5 mg, 13.5 mg oral QD, C1D14 (steady state), N=12, read-out: AUCss,0-24, mean ± STD): 2.94 ± 1.44 µM·h | Cmax ([8]; human, plasma, po, 13.5 mg, 13.5 mg oral QD, C1D14 (steady state), N=12, read-out: Cmax,ss, geometric mean (converted)): 215 nM | Cmax ([8]; human, plasma, po, 13.5 mg, 13.5 mg oral QD, C1D14 (steady state), N=12, read-out: Cmax,ss, mean ± STD): 246 ± 115 nM | Vd/F ([8]; human, plasma, po, 13.5 mg, 13.5 mg oral QD, C1D14 (steady state), N=12, read-out: Vz/F, geometric mean (converted)): 170 L | Vd/F ([8]; human, plasma, po, 13.5 mg, 13.5 mg oral QD, C1D14 (steady state), N=12, read-out: Vz/F, mean ± STD): 179 ± 60.4 L | Tmax ([8]; human, plasma, po, 13.5 mg, 13.5 mg oral QD, C1D14 (steady state), N=12): ~1.99 h | half-life ([8]; human, plasma, po, 13.5 mg, 13.5 mg oral QD, C1D14 (steady state), N=12, read-out: t½ (elimination half-life), geometric mean (converted)): 678 min | half-life ([8]; human, plasma, po, 13.5 mg, 13.5 mg oral QD, C1D14 (steady state), N=12, read-out: t½, mean ± STD (converted)): 708 ± 240 min | Incidence of hyperphosphataemia [9]: 76% | TEAEs leading to treatment interruption/discontinuation or death ([10]; 12 patients): No TEAEs led to treatment interruption/discontinuation or death | Anaemia ([10]; human, in vivo): 6 (50.0) n (%) | Blood alkaline phosphatase increased ([10]; human, in vivo): 0 n (%) | Blood bilirubin increased ([10]; human, in vivo): 0 n (%) | Blood lactate dehydrogenase increased ([10]; human, in vivo): 0 n (%) | Decreased appetite ([10]; human, in vivo): 6 (50.0) n (%) | Diarrhoea ([10]; human, in vivo): 0 n (%) | Gamma-glutamyltransferase increased ([10]; human, in vivo): 1 (8.3) n (%) | Hypoalbuminaemia ([10]; human, in vivo): 6 (50.0) n (%) | Hypochloraemia ([10]; human, in vivo): 0 n (%) | Incidence of anaemia ([10]; human, in vivo): 50.0% | Incidence of arthralgia ([10]; human, in vivo): 8.3% | Incidence of decreased appetite ([10]; human, in vivo): 50.0% | Incidence of gamma-glutamyltransferase increased ([10]; human, in vivo): 8.3% | Incidence of hypercalcaemia ([10]; human, in vivo): 8.3% | Incidence of hypoalbuminaemia ([10]; human, in vivo): 50.0% | Incidence of hypophosphatemia (clinically-notable TEAE) ([10]; human, in vivo): 25.0% | Incidence of lipase increased ([10]; human, in vivo): 8.3% | Incidence of nail discolouration (clinically-notable TEAE) ([10]; human, in vivo): 8.3% | Incidence of nail disorder (clinically-notable TEAE) ([10]; human, in vivo): 16.7% | Incidence of nail toxicity (clinically-notable TEAE) ([10]; human, in vivo): 16.7% | Incidence of proteinuria ([10]; human, in vivo): 8.3% | Low density lipoprotein increased ([10]; human, in vivo): 0 n (%) | Patients with dose reduction due to proteinuria ([10]; human, in vivo): 8.3% | Patients with grade ≥ 3 TEAEs ([10]; human, in vivo): 25.0% | Patients with grade ≥ 3 treatment-related AEs ([10]; human, in vivo): 16.7% | Proteinuria ([10]; human, in vivo): 1 (8.3) n (%) | Weight decreased ([10]; human, in vivo): 0 n (%) | Ocular toxicity (vision blurred of grade 1) ([10]; in vivo): only one patient experienced ocular toxicity | Serious TEAEs ([10]; in vivo): No serious TEAEs occurred
